In patent US20160022675A1, “PROCESSES FOR PREPARING TETRAHYDROISOQUINOLINES” (BRISTOL-MYERS SQUIBB COMPANY, priority 2013, published 2016):

How the values were obtained:
DAT = DAT (Homo sapiens, UniProt Q01959); test: Competition binding, membranes from HEK cells overexpressing DAT; set-up: expressed in transfected cells; host or cells: HEK cells (membranes); conditions: radioligand at Kd concentration; HEK cell membranes
Procedure: (§1) Competition binding experiments were performed to determine the in vitro binding potencies (IC50 values) of Compound 1-(4S) for SERT, DAT, and NET. Membranes prepared from human embryonic kidney (HEK) cells overexpressing each transporter were employed. Radioligands were used at their respective affinity constant (Kd) concentrations for each transporter to enable direct comparisons of the IC50 values between assays.

NET = NET (Homo sapiens, UniProt P23975); test: Competition binding, membranes from HEK cells overexpressing NET; set-up: expressed in transfected cells; host or cells: HEK cells (membranes); conditions: radioligand at Kd concentration; HEK cell membranes
Procedure: as §1

adrenergic α1A receptor = molecular target: T1, adrenergic α1A receptor (Homo sapiens, UniProt P35348); test: Off-target activity at adrenergic α1A receptor; type: binding; conditions: off-target site
T1 sequence (P35348 1-466): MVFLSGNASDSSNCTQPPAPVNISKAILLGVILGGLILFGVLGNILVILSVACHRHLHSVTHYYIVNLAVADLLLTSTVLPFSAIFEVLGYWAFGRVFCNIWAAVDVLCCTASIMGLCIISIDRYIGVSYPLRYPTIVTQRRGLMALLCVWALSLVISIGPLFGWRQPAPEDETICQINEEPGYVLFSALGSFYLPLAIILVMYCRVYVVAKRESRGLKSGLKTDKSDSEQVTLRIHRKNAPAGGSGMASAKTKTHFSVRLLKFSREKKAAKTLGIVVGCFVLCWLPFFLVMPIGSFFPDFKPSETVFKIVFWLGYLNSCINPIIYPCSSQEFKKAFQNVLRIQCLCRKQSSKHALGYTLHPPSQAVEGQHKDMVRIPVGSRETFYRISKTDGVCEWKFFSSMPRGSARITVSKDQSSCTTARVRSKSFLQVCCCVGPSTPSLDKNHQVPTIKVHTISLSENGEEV

SERT = SERT (Homo sapiens, UniProt P31645); test: Competition binding, membranes from HEK cells overexpressing SERT; set-up: expressed in transfected cells; host or cells: HEK cells (membranes); conditions: radioligand at Kd concentration; HEK cell membranes; read-out: SERT binding IC50
Procedure: as §1

adrenergic α1B receptor = molecular target: T2, adrenergic α1B receptor (Homo sapiens, UniProt P35368); test: Off-target activity at adrenergic α1B receptor; type: binding; conditions: off-target site
T2 sequence (P35368 1-520): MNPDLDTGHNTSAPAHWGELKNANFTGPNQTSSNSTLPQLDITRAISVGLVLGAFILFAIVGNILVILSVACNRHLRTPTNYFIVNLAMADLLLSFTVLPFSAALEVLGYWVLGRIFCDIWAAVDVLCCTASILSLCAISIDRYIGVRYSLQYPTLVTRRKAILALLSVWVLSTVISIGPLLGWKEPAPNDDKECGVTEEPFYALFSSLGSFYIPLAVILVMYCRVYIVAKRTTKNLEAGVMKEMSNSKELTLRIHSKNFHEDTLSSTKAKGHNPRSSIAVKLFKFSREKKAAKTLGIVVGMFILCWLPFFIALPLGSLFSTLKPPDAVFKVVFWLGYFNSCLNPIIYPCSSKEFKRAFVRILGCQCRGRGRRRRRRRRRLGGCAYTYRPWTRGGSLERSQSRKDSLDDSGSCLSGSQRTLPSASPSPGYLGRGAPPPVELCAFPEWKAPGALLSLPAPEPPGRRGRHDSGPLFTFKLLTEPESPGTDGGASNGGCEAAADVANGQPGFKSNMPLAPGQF

5-HT1A = molecular target: T3, 5-HT1A (Homo sapiens, UniProt P08908); test: Off-target activity at 5-HT1A; type: binding; conditions: off-target site; read-out: 5-HT1A inhibition constant Ki
T3 sequence (P08908 1-422): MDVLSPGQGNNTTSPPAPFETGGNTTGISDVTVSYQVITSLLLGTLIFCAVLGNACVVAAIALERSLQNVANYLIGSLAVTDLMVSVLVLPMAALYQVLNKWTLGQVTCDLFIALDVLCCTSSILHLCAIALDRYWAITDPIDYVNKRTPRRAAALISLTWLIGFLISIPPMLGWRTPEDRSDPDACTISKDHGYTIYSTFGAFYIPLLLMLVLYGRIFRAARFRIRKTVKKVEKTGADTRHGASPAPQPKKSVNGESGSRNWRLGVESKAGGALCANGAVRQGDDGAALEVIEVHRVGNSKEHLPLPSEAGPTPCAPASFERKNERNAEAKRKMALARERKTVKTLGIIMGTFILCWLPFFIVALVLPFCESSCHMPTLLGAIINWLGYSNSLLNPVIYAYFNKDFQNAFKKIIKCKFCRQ

adrenergic α1D receptor = molecular target: T4, adrenergic α1D receptor (Homo sapiens, UniProt P25100); test: Off-target activity at adrenergic α1D receptor; type: binding; conditions: off-target site
T4 sequence (P25100 1-572): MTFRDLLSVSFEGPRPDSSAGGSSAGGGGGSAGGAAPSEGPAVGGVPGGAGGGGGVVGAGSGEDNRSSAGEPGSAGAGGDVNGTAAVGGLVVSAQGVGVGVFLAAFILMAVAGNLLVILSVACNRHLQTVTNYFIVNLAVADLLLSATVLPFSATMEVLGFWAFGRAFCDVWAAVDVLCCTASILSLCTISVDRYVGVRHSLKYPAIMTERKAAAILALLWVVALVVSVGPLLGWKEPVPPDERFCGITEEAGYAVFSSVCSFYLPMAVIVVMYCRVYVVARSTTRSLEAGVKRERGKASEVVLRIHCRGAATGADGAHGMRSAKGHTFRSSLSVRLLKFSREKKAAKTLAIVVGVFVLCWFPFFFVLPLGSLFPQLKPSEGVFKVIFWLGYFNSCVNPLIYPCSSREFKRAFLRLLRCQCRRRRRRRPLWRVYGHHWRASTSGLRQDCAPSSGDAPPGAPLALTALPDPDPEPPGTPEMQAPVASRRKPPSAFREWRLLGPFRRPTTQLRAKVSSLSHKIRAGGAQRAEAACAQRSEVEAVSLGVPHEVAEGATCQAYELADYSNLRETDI

SERT, sequence (P31645 whole entry): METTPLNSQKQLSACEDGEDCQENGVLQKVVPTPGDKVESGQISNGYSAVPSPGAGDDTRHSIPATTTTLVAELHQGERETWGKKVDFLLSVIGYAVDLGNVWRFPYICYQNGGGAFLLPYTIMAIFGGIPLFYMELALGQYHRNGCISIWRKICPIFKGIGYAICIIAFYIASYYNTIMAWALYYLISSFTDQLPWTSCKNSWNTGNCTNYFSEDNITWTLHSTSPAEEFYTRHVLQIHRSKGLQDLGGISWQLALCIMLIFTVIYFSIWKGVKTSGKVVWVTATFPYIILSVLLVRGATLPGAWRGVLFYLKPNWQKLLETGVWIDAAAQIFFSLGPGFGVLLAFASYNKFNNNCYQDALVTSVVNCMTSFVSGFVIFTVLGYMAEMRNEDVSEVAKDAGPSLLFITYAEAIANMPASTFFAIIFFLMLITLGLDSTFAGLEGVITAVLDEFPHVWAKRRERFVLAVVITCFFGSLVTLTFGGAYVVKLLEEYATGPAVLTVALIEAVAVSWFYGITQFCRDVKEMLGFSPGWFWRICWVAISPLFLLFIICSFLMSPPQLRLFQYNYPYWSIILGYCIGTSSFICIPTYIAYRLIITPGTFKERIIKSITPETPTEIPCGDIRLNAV
NET, sequence (P23975 whole entry): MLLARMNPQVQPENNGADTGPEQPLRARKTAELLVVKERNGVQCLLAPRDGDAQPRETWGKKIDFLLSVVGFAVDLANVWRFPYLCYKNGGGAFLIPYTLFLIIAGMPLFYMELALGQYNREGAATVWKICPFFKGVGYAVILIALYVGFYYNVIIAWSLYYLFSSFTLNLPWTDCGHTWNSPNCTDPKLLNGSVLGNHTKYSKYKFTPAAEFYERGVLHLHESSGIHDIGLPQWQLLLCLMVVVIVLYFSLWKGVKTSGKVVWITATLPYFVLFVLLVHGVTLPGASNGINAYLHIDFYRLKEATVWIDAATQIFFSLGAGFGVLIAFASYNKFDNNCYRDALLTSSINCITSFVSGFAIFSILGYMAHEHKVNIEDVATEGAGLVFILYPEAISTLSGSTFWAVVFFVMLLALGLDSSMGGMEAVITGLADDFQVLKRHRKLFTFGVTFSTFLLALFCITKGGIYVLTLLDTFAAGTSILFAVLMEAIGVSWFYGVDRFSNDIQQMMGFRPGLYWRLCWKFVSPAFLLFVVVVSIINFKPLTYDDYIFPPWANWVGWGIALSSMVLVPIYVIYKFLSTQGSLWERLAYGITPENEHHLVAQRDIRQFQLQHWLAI
DAT, sequence (Q01959 whole entry): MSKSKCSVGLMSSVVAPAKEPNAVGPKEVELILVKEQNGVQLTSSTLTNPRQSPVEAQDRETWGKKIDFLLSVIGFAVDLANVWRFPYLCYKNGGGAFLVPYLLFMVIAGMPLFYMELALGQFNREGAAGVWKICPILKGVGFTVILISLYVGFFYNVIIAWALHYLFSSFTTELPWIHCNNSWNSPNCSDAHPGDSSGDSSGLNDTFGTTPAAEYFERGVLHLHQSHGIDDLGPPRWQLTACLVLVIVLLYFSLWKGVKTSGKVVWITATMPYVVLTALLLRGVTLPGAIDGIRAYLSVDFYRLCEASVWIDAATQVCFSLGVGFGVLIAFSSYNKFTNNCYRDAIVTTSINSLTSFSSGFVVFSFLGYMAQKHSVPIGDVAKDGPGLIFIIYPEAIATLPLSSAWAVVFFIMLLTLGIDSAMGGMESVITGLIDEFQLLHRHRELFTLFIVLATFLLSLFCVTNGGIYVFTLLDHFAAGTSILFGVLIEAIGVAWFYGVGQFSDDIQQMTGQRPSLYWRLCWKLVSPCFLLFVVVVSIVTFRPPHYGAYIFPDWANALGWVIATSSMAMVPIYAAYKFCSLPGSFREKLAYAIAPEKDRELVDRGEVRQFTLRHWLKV

IC50 (DAT): 0.00619 ± 0.001 µM
IC50 (NET): 0.0267 ± 0.003 µM
Ki (adrenergic α1A receptor): 0.41 µM
IC50 (SERT): 0.00021 ± 4e-05 µM
Ki (adrenergic α1B receptor): 0.26 µM
Ki (5-HT1A): 0.099 µM
Ki (adrenergic α1D receptor): 0.48 µM
Structure (SMILES): Nc1ccc(-c2ccc3c(c2)CNC[C@H]3c2ccc3ccccc3c2)nn1 [Compound 31]
